Measured values reported in US12600732B2, “Bifunctional compounds for degrading BTK via ubiquitin proteosome pathway” (NURIX THERAPEUTICS, INC., priority 2019, dated 2026).

Key:
BTK = target: T1, BTK (Mus musculus, UniProt P35991); experiment: In vivo degradation of BTK in mouse PD experiments with oral dosing; conditions: oral dose 30 mg/kg, 24 h
T1 construct: from tissue; host or cells: mouse blood B cells / splenocytes (CD-1 or BALB/c)
Outline: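 CD-1 or BALB/c mice dosed by oral gavage, screens at 90 mg/kg for 6 h, later at lower doses/longer times. Blood or splenocyte BTK measured by intracellular flow cytometry (or HTRF); % degradation from B-cell minus T-cell BTK geometric MFI, relative to vehicle.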

BTK C481S = BTK C481S (Homo sapiens, UniProt Q06187, C481S); experiment: BTK degradation (Total BTK HTRF) in TMD8 cells expressing BTK-C481S; assay type: cell-based; set-up: endogenous in cells; host or cells: TMD8 BTK-C481S (clone2C3), Cas9 RNP knock-in; conditions: TMD8 BTK-C481S (clone2C3) cells, treatment time 4 h
Procedure: BTK levels were determined using Cisbio Total-BTK HTRF (Homologous Time-Resolved Fluorescence) kit (63ADK064PEG) according to the manufacturer's protocol. Briefly, cells were incubated in 1× supplied lysis buffer for 30 minutes. In an opaque white low volume 96-well plate (Cisbio, 66PL96005), cell lysate was combined with two different specific BTK antibodies, one conjugated with Eu^3+-Cryptate FRET donor and one conjugated with d2 FRET acceptor. Assay controls include wells containing cell lysate with only the Eu^3+-Cryptate FRET donor antibody and wells containing both HTRF antibodies and lysis buffer without cells or control lysate provided by Cisbio. HTRF ratio was calculated as (acceptor signal at 665 nm/donor signal at 620 nm)×10^4. Background HTRF levels were determined from the control well containing the donor, but no acceptor, antibody. Background HTRF levels were subtracted from all samples. Readouts were reported as HTRF levels relative to HTRF levels of DMSO-treated cells. Four-parameter non-linear regressions were performed in GraphPad Prism 7.02 to obtain DC50 values.
BTK Degradation (Total BTK HTRF) at Four Hours in TMD8 Cells Expressing BTK-C481S
This example evaluates the potency of CTM in degrading […]. The BTK binding moieties utilized in CTMs bind to the BTK active site. This example evaluates whether the active site mutation C481S affects CTM-induced degradation of BTK.

TMD8 cells = experiment: Cell viability assay (CellTiter-Glo), TMD8 cells
TMD8 C481S cells = experiment: Cell viability assay (CellTiter-Glo), TMD8 C481S cells
Aiolos = target: T2, Aiolos (Homo sapiens, UniProt Q96SW2+Q9UKT9); experiment: Aiolos degradation in Mantle Cell Lymphoma lines (flow cytometry); assay type: cell-based; conditions: treatment time 24 h
T2 construct: endogenous in cells; host or cells: Mino, Rec-1
Text: (§1) Ikaros and Aiolos Degradation in Mantle Cell Lymphoma Lines (Ikaros and Aiolos Flow Cytometry)
(§2) This example evaluates the IMiD activity of CTMs in cellular models of Mantle Cell Lymphoma (MCL). […] These assays are to determine potency of CTMs for degrading IMiD neo-substrates in cellular models of MCL and to generate data to inform efficacy studies in MCL xenografts.

Ikaros = target: T3, Ikaros (Homo sapiens, UniProt Q13422+Q96SW2); experiment: Ikaros degradation in Mantle Cell Lymphoma lines (flow cytometry); assay type: cell-based; conditions: treatment time 24 h
T3 construct: endogenous in cells; host or cells: Mino, Rec-1
Text: as §1, §2

primary human T cells [1] = experiment: T cell activation assay, IL-2 secretion (ELISA); assay type: cell-based; conditions: for IL-2 secretion compared to baseline (anti-CD3/anti-CD28 stimulation alone): primary human T cells
Procedure: (§3) This example evaluates whether CTMs with IMiD activity affect T cell activation. […] These assays were performed to assess whether BTK CTMs with and without IMiD activity affected activation of primary human T cells after stimulation of the T cell receptor with anti-CD3/ati-CD28 stimulation. T cell activation was measured by IL-2 secretion (ELISA assay) and upregulation of activation markers CD25 and CD69 on the surface of T cells (flow cytometry). Data are presented as the fold-change of response relative to baseline (stimulation with anti-CD3/anti-CD28 stimulation in the absence of compound).

primary human T cells [2] = experiment: T cell activation assay, CD25 and CD69 staining (flow cytometry); assay type: cell-based; conditions: for CD25 Staining Anti-CD3/Anti-CD28 Stimulation / CD69 Staining Anti-CD3/Anti-CD28 Stimulation: fold-change of response relative to baseline; for expression of CD25 and CD69 compared to baseline (anti-CD3/anti-CD28 stimulation alone): primary human T cells
Procedure: as §3

[3] = 1.4 nM, fold-change of response relative to baseline
[4] = 37 nM, fold-change of response relative to baseline
[5] = 333 nM, fold-change of response relative to baseline (stimulation without compound)

NC(=O)c1ncc(N2CCCC3(COC3)C2)nc1Nc1ccc(C2CCN(C[C@H]3CCN(c4ccc5c(c4)C(=O)N(C4CCC(=O)NC4=O)C5=O)C3)CC2)cc1 (stereo partly drawn) [Compound 126]
% BTK Remaining (BTK; blood, flow cytometry): 33% | DC50 (BTK C481S): 0.0077 µM

CN1CCN([C@@H]2CCCN(c3cnc(C(N)=O)c(Nc4ccc(C5CCN(C6CN(Cc7ccc8c(c7)C(=O)N(C7CCC(=O)NC7=O)C8=O)C6)CC5)cc4)n3)C2)C1=O (stereo partly drawn) [Compound 101]
EC50 (TMD8 cells; Homo sapiens, TMD8, 72 h): 0.0934 µM | EMAX (% viable cells) (TMD8 cells; TMD8 cells, treatment time 72 h): 27% | EC50 (TMD8 C481S cells; Homo sapiens, TMD8, 72 h): 0.431 µM | EMAX (% viable cells) (TMD8 C481S cells; TMD8 C481S cells, treatment time 72 h): 27% | DC50 (BTK C481S): 0.0043 µM

NC(=O)c1ncc(N2CCCCC2)nc1Nc1ccc(C2CCN(CC3CCN(c4ccc(C(=O)NC5CCC(=O)NC5=O)nc4)CC3)CC2)cc1 (stereo not drawn) [Compound 182]
% BTK Remaining (BTK; splenocytes, HTRF): 12% | DC50 (BTK C481S): 0.0145 µM

CN1CCN([C@@H]2CCCN(c3cnc(C(N)=O)c(Nc4ccc(C5CCN(CC6CCN(c7ccc8c(c7)n(C)c(=O)n8C7CCC(=O)NC7=O)CC6)CC5)cc4)n3)C2)C1=O (stereo partly drawn) [Compound 156]
DC50 (BTK C481S): 0.0004 µM

NC(=O)c1ncc(N2CCC[C@H](N3CCOC3=O)C2)nc1Nc1ccc(N2CCC(C3CN(c4ccc5c(c4)C(=O)N(C4CCC(=O)NC4=O)C5=O)C3)CC2)cc1 (stereo partly drawn) [Compound 70]
% BTK Remaining (BTK; splenocytes, HTRF): 42% | DC50 (BTK C481S): 0.0031 µM

CN1CCN([C@@H]2CCCN(c3cnc(C(N)=O)c(Nc4ccc5c(c4)CCN(C4CN(c6ccc7c(c6)C(=O)N(C6CCC(=O)NC6=O)C7=O)C4)C5)n3)C2)C1=O (stereo partly drawn) [Compound 30]
DC50 (Aiolos; Mino cells): 0.01 µM | DC50 (Aiolos; Rec-1 cells): 0.034 µM | DC50 (Ikaros; Mino cells): 1.1 µM | DC50 (Ikaros; Rec-1 cells): 1 µM | IL-2 Secretion Anti-CD3/Anti-CD28 Stimulation (primary human T cells [1]; [3]): 1.59 | IL-2 Secretion Anti-CD3/Anti-CD28 Stimulation (primary human T cells [1]; [4]): 3.82 | IL-2 Secretion Anti-CD3/Anti-CD28 Stimulation (primary human T cells [1]; [5]): 3.95 | IL-2 secretion compared to baseline (anti-CD3/anti-CD28 stimulation alone) (primary human T cells [1]): increased IL-2 secretion but not to the level observed with IMiDs | CD25 Staining Anti-CD3/Anti-CD28 Stimulation (primary human T cells [2]; 1.4 nM): 1.01 | CD69 Staining Anti-CD3/Anti-CD28 Stimulation (primary human T cells [2]; 1.4 nM): 1.01 | CD25 Staining Anti-CD3/Anti-CD28 Stimulation (primary human T cells [2]; 37 nM): 1.14 | CD69 Staining Anti-CD3/Anti-CD28 Stimulation (primary human T cells [2]; 37 nM): 1.10 | CD25 Staining Anti-CD3/Anti-CD28 Stimulation (primary human T cells [2]; 333 nM): 1.17 | CD69 Staining Anti-CD3/Anti-CD28 Stimulation (primary human T cells [2]; 333 nM): 1.16 | expression of CD25 and CD69 compared to baseline (anti-CD3/anti-CD28 stimulation alone) (primary human T cells [2]): unchanged or decreased levels

CN1CCN([C@@H]2CCCN(c3cnc(C(N)=O)c(Nc4ccc(C5CCN(C(=O)CCOCCNc6cccc7c6C(=O)N(C6CCC(=O)NC6=O)C7=O)CC5)cc4)n3)C2)C1=O (stereo partly drawn) [Compound 25]
DC50 (Aiolos; Mino cells): 0.01 µM | DC50 (Aiolos; Rec-1 cells): 0.031 µM | DC50 (Ikaros; Mino cells): 0.029 µM | DC50 (Ikaros; Rec-1 cells): 0.063 µM | IL-2 Secretion Anti-CD3/Anti-CD28 Stimulation (primary human T cells [1]; [3]): 2.42 | IL-2 Secretion Anti-CD3/Anti-CD28 Stimulation (primary human T cells [1]; [4]): 3.35 | IL-2 Secretion Anti-CD3/Anti-CD28 Stimulation (primary human T cells [1]; [5]): 3.86 | IL-2 secretion compared to baseline (anti-CD3/anti-CD28 stimulation alone) (primary human T cells [1]): increased IL-2 secretion but not to the level observed with IMiDs | CD25 Staining Anti-CD3/Anti-CD28 Stimulation (primary human T cells [2]; 1.4 nM): 1.25 | CD69 Staining Anti-CD3/Anti-CD28 Stimulation (primary human T cells [2]; 1.4 nM): 1.18 | CD25 Staining Anti-CD3/Anti-CD28 Stimulation (primary human T cells [2]; 37 nM): 1.30 | CD69 Staining Anti-CD3/Anti-CD28 Stimulation (primary human T cells [2]; 37 nM): 1.33 | CD25 Staining Anti-CD3/Anti-CD28 Stimulation (primary human T cells [2]; 333 nM): 1.39 | CD69 Staining Anti-CD3/Anti-CD28 Stimulation (primary human T cells [2]; 333 nM): 1.39 | expression of CD25 and CD69 compared to baseline (anti-CD3/anti-CD28 stimulation alone) (primary human T cells [2]): unchanged or decreased levels
